{"source": "patent US20240224994A1", "about": "“INSECT REPELLANT FORMULATION AND METHOD OF USING SAME” (United Industries Corporation, priority 2021, published 2024)", "system": "Deer Ticks, Ixodes ricinus", "assay": "Efficacy of nootkatone formulations against ticks on human forearm skin (complete protection time)", "assay_type": "in vivo", "conditions": "FIG. 1; human skin test", "experimental": "The objective of the study was estimate the complete protection time (CPT) of the various repellent formulations against ticks. Complete protection time (CPT) was measured as the length of time from initial application to the First Confirmed Crossing (FCC).\nA number of 32 volunteers were selected based on signing of informed consent form and passing the sensitivity test, 24-48 hours before the initiation of the experiment. The volunteers were briefed about the experiment in detail prior to signing the consent form. Test volunteers were instructed to avoid alcohol, tobacco, caffeine, and fragrance products (e.g., perfume, cologne, hair spray, lotion, etc.) at least for 12 hours before, and during the test.\nThe test substance/positive control (liquid) was applied at 1 ml/600 cm^2±10% deviation. […] The treatment area was calculated by measuring the circumference (cm) of the wrist (B), the circumference (cm) at the elbow-cubital fossa (C) when the arm is extended, and the distance (cm) from the elbow to the wrist (D) The surface area (in cm^2) of skin was calculated by: […]\nFresh ticks were exposed to the treated area one at a time, at regular intervals of 30 minutes until the first crossing or observation were recorded as “not repelled.” The cycle continues until efficacy failure or the end of the study, whichever occurs first. […]"}
{"smiles": "OCc1ccccc1", "note": "[benzyl alcohol]", "values": [{"measurement": "effect of ingredient on CPT of the compositions", "result": "effective in prolonging the CPT"}]}
